{"source": "PubChem BioAssay AID1745844", "about": "(Carcinogenic Potency Database (CPDB), 2022)", "system": "rodent lifetime carcinogenesis bioassay, tumor incidence TD50", "assay": "carcinogenic potency in animals, long-term in vivo studies, CPDB compilation (AID 1745844)", "note": "The source made the active and inactive calls. How the calls were made is not given here.", "data": [{"smiles": "CN(C)N=O", "values": [{"measurement": "TD50", "setting": "mouse, strain A, males, in drinking water, site: lung, lesion: alveolar-cell adenoma, dosed 72 weeks, study length 72 weeks", "result": 0.177, "unit": "mg/kg/day"}, {"measurement": "TD50", "setting": "mouse, strain BALB/c, females, in drinking water, site: any site (literature study), lesion: several types, types named in the paper, dosed 85 weeks, study length 85 weeks", "result": 0.396, "unit": "mg/kg/day"}, {"measurement": "TD50", "setting": "mouse, strain BALB/c, females, in drinking water, site: lung, lesion: adenoma, dosed 85 weeks, study length 85 weeks", "result": 0.324, "unit": "mg/kg/day"}, {"measurement": "TD50", "setting": "mouse, strain C57BL, females, by gavage, site: any site (literature study), lesion: several types, types named in the paper, dosed 50 weeks, study length 72 weeks", "result": 0.0964, "unit": "mg/kg/day"}, {"measurement": "TD50", "setting": "mouse, strain C57BL, females, by gavage, site: forebrain, lesion: olfactory neuroepithelioma, dosed 50 weeks, study length 72 weeks", "result": 0.153, "unit": "mg/kg/day"}, {"measurement": "TD50", "setting": "mouse, strain C57BL, females, by gavage, site: liver, lesion: benign tumor, dosed 50 weeks, study length 72 weeks", "result": 0.35, "unit": "mg/kg/day"}, {"measurement": "TD50", "setting": "mouse, strain C57BL, females, by gavage, site: liver, lesion: malignant tumor, dosed 50 weeks, study length 72 weeks", "result": 0.429, "unit": "mg/kg/day"}, {"measurement": "TD50", "setting": "mouse, strain C57BL, males, by gavage, site: any site (literature study), lesion: several types, types named in the paper, dosed 50 weeks, study length 72 weeks", "result": 0.06, "unit": "mg/kg/day"}, {"measurement": "TD50", "setting": "mouse, strain C57BL, males, by gavage, site: forebrain, lesion: olfactory neuroepithelioma, dosed 50 weeks, study length 72 weeks", "result": 0.161, "unit": "mg/kg/day"}, {"measurement": "TD50", "setting": "mouse, strain C57BL, males, by gavage, site: liver, lesion: benign tumor, dosed 50 weeks, study length 72 weeks", "result": 0.508, "unit": "mg/kg/day"}, {"measurement": "TD50", "setting": "mouse, strain C57BL, males, by gavage, site: liver, lesion: malignant tumor, dosed 50 weeks, study length 72 weeks", "result": 0.179, "unit": "mg/kg/day"}, {"measurement": "TD50", "setting": "mouse, strain C57BL, males, by gavage, site: lung, lesion: adenoma, dosed 50 weeks, study length 72 weeks", "result": 21.1, "unit": "mg/kg/day"}, {"measurement": "TD50", "setting": "rat, strain Buffalo, males, in feed, site: liver, lesion: hepatocellular carcinoma, dosed 26 weeks, study length 52 weeks", "result": 1.76, "unit": "mg/kg/day"}, {"measurement": "TD50", "setting": "rat, strain Colworth (Wistar derived), females, in drinking water, site: liver, lesion: hepatocellular carcinoma, dosed 176 weeks, study length 176 weeks", "result": 0.237, "unit": "mg/kg/day"}, {"measurement": "TD50", "setting": "rat, strain Colworth (Wistar derived), females, in drinking water, site: liver, lesion: hepatocellular tumor, dosed 176 weeks, study length 176 weeks", "result": 0.145, "unit": "mg/kg/day"}, {"measurement": "TD50", "setting": "rat, strain Colworth (Wistar derived), females, in drinking water, site: liver, lesion: intrahepatic bile duct tumor, benign, dosed 176 weeks, study length 176 weeks", "result": 0.0763, "unit": "mg/kg/day"}, {"measurement": "TD50", "setting": "rat, strain Colworth (Wistar derived), females, in drinking water, site: liver, lesion: intrahepatic bile duct tumor, dosed 176 weeks, study length 176 weeks", "result": 0.0752, "unit": "mg/kg/day"}, {"measurement": "TD50", "setting": "rat, strain Colworth (Wistar derived), females, in drinking water, site: liver, lesion: mesenchymal hemangio-sarcoma, -pericytoma, or -endothelioma, malignant, dosed 176 weeks, study length 176 weeks", "result": 0.914, "unit": "mg/kg/day"}, {"measurement": "TD50", "setting": "rat, strain Colworth (Wistar derived), females, in drinking water, site: liver, lesion: neoplasm of liver cell, bile duct, mesenchyme, Kupffer cell, or unknown, dosed 176 weeks, study length 176 weeks", "result": 0.0424, "unit": "mg/kg/day"}, {"measurement": "TD50", "setting": "rat, strain Colworth (Wistar derived), males, in drinking water, site: liver, lesion: hepatocellular carcinoma, dosed 176 weeks, study length 176 weeks", "result": 0.218, "unit": "mg/kg/day"}, {"measurement": "TD50", "setting": "rat, strain Colworth (Wistar derived), males, in drinking water, site: liver, lesion: hepatocellular tumor, dosed 176 weeks, study length 176 weeks", "result": 0.157, "unit": "mg/kg/day"}, {"measurement": "TD50", "setting": "rat, strain Colworth (Wistar derived), males, in drinking water, site: liver, lesion: intrahepatic bile duct tumor, benign, dosed 176 weeks, study length 176 weeks", "result": 0.313, "unit": "mg/kg/day"}, {"measurement": "TD50", "setting": "rat, strain Colworth (Wistar derived), males, in drinking water, site: liver, lesion: intrahepatic bile duct tumor, malignant, dosed 176 weeks, study length 176 weeks", "result": 23.6, "unit": "mg/kg/day"}, {"measurement": "TD50", "setting": "rat, strain Colworth (Wistar derived), males, in drinking water, site: liver, lesion: intrahepatic bile duct tumor, dosed 176 weeks, study length 176 weeks", "result": 0.308, "unit": "mg/kg/day"}, {"measurement": "TD50", "setting": "rat, strain Colworth (Wistar derived), males, in drinking water, site: liver, lesion: mesenchymal hemangio-sarcoma, -pericytoma, or -endothelioma, malignant, dosed 176 weeks, study length 176 weeks", "result": 0.712, "unit": "mg/kg/day"}, {"measurement": "TD50", "setting": "rat, strain Colworth (Wistar derived), males, in drinking water, site: liver, lesion: neoplasm of liver cell, bile duct, mesenchyme, Kupffer cell, or unknown, dosed 176 weeks, study length 176 weeks", "result": 0.0867, "unit": "mg/kg/day"}, {"measurement": "TD50", "setting": "rat, strain Colworth (Wistar derived), males, in drinking water, site: lung, lesion: several types, types named in the paper, dosed 176 weeks, study length 176 weeks", "result": 1.64, "unit": "mg/kg/day"}, {"measurement": "TD50", "setting": "rat, strain Fischer 344, females, in drinking water, site: liver, lesion: hemangiosarcoma, dosed 30 weeks, study length 110 weeks", "result": 0.438, "unit": "mg/kg/day"}, {"measurement": "TD50", "setting": "rat, strain Fischer 344, females, in drinking water, site: liver, lesion: hepatocellular carcinoma, dosed 30 weeks, study length 110 weeks", "result": 0.135, "unit": "mg/kg/day"}, {"measurement": "TD50", "setting": "rat, strain Fischer 344, females, in drinking water, site: liver, lesion: several types, types named in the paper, dosed 30 weeks, study length 110 weeks", "result": 0.0587, "unit": "mg/kg/day"}, {"measurement": "TD50", "setting": "rat, strain Fischer 344, males, by gavage, site: kidney, lesion: mesenchymal neoplasm, dosed 30 weeks, study length 65 weeks", "result": 0.189, "unit": "mg/kg/day"}, {"measurement": "TD50", "setting": "rat, strain Fischer 344, males, by gavage, site: liver, lesion: cholangiocellular tumor, benign, dosed 30 weeks, study length 65 weeks", "result": 0.822, "unit": "mg/kg/day"}, {"measurement": "TD50", "setting": "rat, strain Fischer 344, males, by gavage, site: liver, lesion: hemangiosarcoma, dosed 30 weeks, study length 65 weeks", "result": 0.822, "unit": "mg/kg/day"}, {"measurement": "TD50", "setting": "rat, strain Fischer 344, males, by gavage, site: liver, lesion: hepatocellular tumor, benign, dosed 30 weeks, study length 65 weeks", "result": 0.372, "unit": "mg/kg/day"}, {"measurement": "TD50", "setting": "rat, strain Fischer 344, males, by gavage, site: liver, lesion: several types, types named in the paper, dosed 30 weeks, study length 65 weeks", "result": 0.189, "unit": "mg/kg/day"}, {"measurement": "TD50", "setting": "rat, strain Fischer 344, males, by gavage, site: lung, lesion: alveolar/bronchiolar adenoma, dosed 30 weeks, study length 65 weeks", "result": 0.106, "unit": "mg/kg/day"}, {"measurement": "TD50", "setting": "rat, strain Fischer 344, males, by gavage, site: lung, lesion: several types, types named in the paper, dosed 30 weeks, study length 65 weeks", "result": 0.0765, "unit": "mg/kg/day"}, {"measurement": "TD50", "setting": "rat, strain Fischer 344, males, by gavage, site: lung, lesion: squamous-cell carcinoma, dosed 30 weeks, study length 65 weeks", "result": 0.372, "unit": "mg/kg/day"}, {"measurement": "TD50", "setting": "rat, strain MRC Porton (Wistar derived), females, in feed, site: liver, lesion: one or several types, types not named, dosed 52 weeks, study length 120 weeks", "result": 0.443, "unit": "mg/kg/day"}, {"measurement": "TD50", "setting": "rat, strain MRC Porton (Wistar derived), females, in feed, site: liver, lesion: one or several types, types not named, dosed 108 weeks, study length 120 weeks", "result": 1.4, "unit": "mg/kg/day"}, {"measurement": "TD50", "setting": "rat, strain MRC Porton (Wistar derived), males, in feed, site: liver, lesion: one or several types, types not named, dosed 120 weeks, study length 120 weeks", "result": 1.18, "unit": "mg/kg/day"}, {"measurement": "TD50", "setting": "rat, strain Wistar, females, in feed, site: all sites, lesion: leukemia, dosed 96 weeks, study length 96 weeks", "result": 1.46, "unit": "mg/kg/day"}, {"measurement": "TD50", "setting": "rat, strain Wistar, females, in feed, site: liver, lesion: hemangioendothelioma, dosed 96 weeks, study length 96 weeks", "result": 1.83, "unit": "mg/kg/day"}, {"measurement": "TD50", "setting": "rat, strain Wistar, females, in feed, site: liver, lesion: hepatocellular carcinoma, dosed 96 weeks, study length 96 weeks", "result": 4.1, "unit": "mg/kg/day"}, {"measurement": "TD50", "setting": "rat, strain Wistar, females, in feed, site: liver, lesion: nodular hyperplasia, dosed 96 weeks, study length 96 weeks", "result": 0.113, "unit": "mg/kg/day"}, {"measurement": "carcinogen call", "setting": "rat, strain Wistar, males, in feed, site: liver, lesion: carcinoma, dosed 54 weeks, study length 69 weeks", "result": "negative (inactive)"}, {"measurement": "TD50", "setting": "rat, strain Wistar, males, in feed, site: liver, lesion: hemangioendothelioma, dosed 96 weeks, study length 96 weeks", "result": 1.95, "unit": "mg/kg/day"}, {"measurement": "TD50", "setting": "rat, strain Wistar, males, in feed, site: liver, lesion: hepatocellular carcinoma, dosed 96 weeks, study length 96 weeks", "result": 5.52, "unit": "mg/kg/day"}, {"measurement": "TD50", "setting": "rat, strain Wistar, males, in feed, site: liver, lesion: nodular hyperplasia, dosed 96 weeks, study length 96 weeks", "result": 0.782, "unit": "mg/kg/day"}, {"measurement": "TD50", "setting": "rat, strain Wistar, males, in feed, site: testis, lesion: Leydig-cell tumor, dosed 54 weeks, study length 69 weeks", "result": 0.136, "unit": "mg/kg/day"}]}]}
